Values quoted from earlier work as cited in US20110190221A1, “MODULATION AND REPLETION/ENHANCEMENT OF THE COMPLEMENT SYSTEM FOR TREATMENT OF TRAUMA” (APELLIS AG, priority 2008, published 2011).

Test system: complement activation
Conditions: relative to compstatin amidated at the C-terminus; based on published data (WO2004/026328, Mallik 2005, Katragadda 2006)

Sequence: ICVVQDWGHHRCT [Ac-compstatin]
- Activity over compstatin: 3 × more
